In assay [1] the target is T1, S1P1 (Homo sapiens (Human), UniProt P21453). Description: Receptor [35S] GTPγS Binding Assay, S1P1. In kind it is biochemical. Particulars: for GTPγS S1P3/S1P1: ratio of GTPγS S1P3 EC50 to GTPγS S1P1 EC50, * and ** S1P3 value at detection limit; for EC50: membranes from S1P1/CHO cells, [35S]GTP. The protocol:
(§1) Receptor [35S] GTPγS Binding Assays
(§2) Membranes prepared from S1P1/CHO cells or EDG3-Ga15-bla HEK293T cells were added to the compound plate (40 μl/well, final protein 3 μg/well) with MULTIDROP®. [^35S]GTP (1250 Ci/mmol, Perkin Elmer) was diluted in assay buffer: 20 mM HEPES, pH7.5, 10 mM MgCl2, 150 mM NaCl, 1 mM EGTA, 1 mM DTT, 10 μM GDP, 0.1% fatty acid free BSA, and 10 μg/ml Saponin to 0.4 nM. 40 μl of the [^35S] GTP solution was added to the compound plate with a final concentration of 0.2 nM. The reaction was kept at room temperature for 45 min. At the end of incubation, all the mixtures in the compound plate were transferred to a 384 well FB filter plates via GPCR robot system. The filter plate was washed with water 4 times by using the modified manifold Embla plate washer and dried at 60° C. for 45 min. 30 μl of MicroScint 20 scintillation fluid was added to each well for counting at Packard TOPCOUNT®.
A larger value for the GTPγS S1P3 EC50 value indicated less activity in the GTPγS S1P3 binding assay.
In general terms: Binding of GTPγS marks nucleotide exchange on a G protein.

In another assay the target is S1P3 (Homo sapiens (Human), UniProt Q99500). Kind of assay: Receptor [35S] GTPγS Binding Assay, S1P3. In kind it is biochemical. To be noted: membranes from EDG3-Ga15-bla HEK293T cells; * detection limit 62,500 nM, ** detection limit 32,500 nM. The protocol:
as §1
as §2, with “Compounds were loaded in a 384 FALCON® v-bottom plate (0.5 μl/well in a 3-fold dilution). Membranes” for “Membranes”, “TOPCOUNT®. EC50 is defined as the agonist concentration that corresponds to 50% of the Ymax (maximal response) obtained for each individual compound tested.” for “TOPCOUNT®.”
A smaller value for GTPγS S1P1 EC50 value indicated greater activity for the compound in the GTPγS S1P1 binding assay. A larger value for the GTPγS S1P3 EC50 value indicated less activity in the GTPγS S1P3 binding assay.

The target of assay [2] is T1, S1P1. Description: S1P1 Binding Assay. To be noted: membranes from CHO cells expressing human S1P1; 33P-S1P ligand; rounded to two digits. How it is done:
Membranes were prepared from CHO cells expressing human S1P1. Cells were dissociated in buffer containing 20 mM HEPES, pH 7.5, 50 mM NaCl, 2 mM EDTA and Protease Inhibitor cocktail (Roche), and disrupted on ice using the Polytron homogenizer. The homogenate was centrifuged at 20,000 rpm (48,000 G) and the supernatant was discarded. The membrane pellets were resuspended in buffer containing 50 mM HEPES, pH 7.5, 100 mM NaCl, 1 mM MgCl2, 2 mM EDTA and stored in aliquots at −80° C. after protein concentration determination. Membranes (2 μg/well) and 0.03 nM final concentration of ^33P-S1P ligand (1 mCi/ml, American Radiolabeled Chemicals) were added to the compound plates. Binding was performed for 45 minutes at room temperature, terminated by collecting the membranes onto GF/B filter plates, and radioactivity was measured by TOPCOUNT®. The competition data of the test compounds over a range of concentrations was plotted as percentage inhibition of radioligand specific binding. The IC50 is defined as the concentration of competing ligand needed to reduce specific binding by 50%.
The results in Table A were rounded to two digits.

SMILES strings stand for the structures. Counter-ions that a name gives are not always drawn.

Sequence of S1P3 (Q99500 whole entry): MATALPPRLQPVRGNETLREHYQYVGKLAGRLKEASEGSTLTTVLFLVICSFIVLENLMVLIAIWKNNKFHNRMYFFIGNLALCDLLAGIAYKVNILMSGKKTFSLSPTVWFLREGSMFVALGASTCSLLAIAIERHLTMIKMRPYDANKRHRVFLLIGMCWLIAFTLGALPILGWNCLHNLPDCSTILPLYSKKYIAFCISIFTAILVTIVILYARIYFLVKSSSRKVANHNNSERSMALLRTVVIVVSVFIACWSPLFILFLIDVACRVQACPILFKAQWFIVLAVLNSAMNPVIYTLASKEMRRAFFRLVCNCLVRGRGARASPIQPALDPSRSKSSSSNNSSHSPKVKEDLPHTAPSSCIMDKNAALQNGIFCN
T1 sequence (P21453 whole entry): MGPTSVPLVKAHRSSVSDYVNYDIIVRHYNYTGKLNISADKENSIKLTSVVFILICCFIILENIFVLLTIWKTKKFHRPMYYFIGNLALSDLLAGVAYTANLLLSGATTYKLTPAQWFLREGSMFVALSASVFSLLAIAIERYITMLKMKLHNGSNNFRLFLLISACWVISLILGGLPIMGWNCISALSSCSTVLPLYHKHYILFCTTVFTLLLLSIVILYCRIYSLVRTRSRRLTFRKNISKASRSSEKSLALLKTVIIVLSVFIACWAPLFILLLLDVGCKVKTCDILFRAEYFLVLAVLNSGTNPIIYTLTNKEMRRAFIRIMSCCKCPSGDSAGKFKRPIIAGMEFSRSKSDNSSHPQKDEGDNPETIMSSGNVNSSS

The EC50 is the concentration at which the effect is half-maximal. Read a high EC50 as a less potent agent. With `O=C(NC1CCC1)C(O)c1ccc(-c2noc(-c3onc(-c4ccccc4)c3C(F)(F)F)n2)cc1` (racemic) [Example 116, (R/S)-N-Cyclobutyl-2-hydroxy-2-(4-(5-(3-phenyl-4-(trifluoromethyl)isoxazol-5-yl)-1,2,4-oxadiazol-3-yl)phenyl)acetamide], the “GTPγS S1P3/S1P1” value at S1P1 [1] is > 387*. The molecule further came in with a concentration giving a half-maximal response (EC50) at S1P3 greater than 62500 nM.

As usually defined, the IC50 is the concentration that inhibits the measured activity by half. At S1P1 [2], `CNC(=O)[C@H](C)NC(=O)C(O)c1ccc(-c2noc(-c3onc(-c4ccccc4)c3C(F)(F)F)n2)cc1` (mixture of isomers) [Example 32, (R/S)-2-(2-Hydroxy-2-(4-(5-(3-phenyl-4-(trifluoromethyl)isoxazol-5-yl)-1,2,4-oxadiazol-3-yl)phenyl)acetamido)-N-methyl(S)propanamide] gave a half-maximal inhibitory concentration (IC50) of 2.6 nM. Besides, at S1P1 [1], the EC50 was 1.5 nM and the “GTPγS S1P3/S1P1” value is listed as 10707. The molecule further gave an EC50 on S1P3 of 16100 nM.

In turn, `CC(C)(C)OC(=O)NCCNC(=O)C(O)c1ccc(-c2noc(-c3onc(-c4ccccc4)c3C(F)(F)F)n2)cc1` (racemic) [Example 51, (R/S)-tert-Butyl 2-(2-hydroxy-2-(4-(5-(3-phenyl-4-(trifluoromethyl)isoxazol-5-yl)-1,2,4-oxadiazol-3-yl)phenyl)acetamido)ethylcarbamate] returned an IC50 on S1P1 [2] of 31 nM. Further, the 50% effective concentration (EC50) was 89.4 nM on S1P1 [1] and 13600 nM at S1P3.

In the case of `O=C(NCc1nc2ccccc2[nH]1)C(O)c1ccc(-c2noc(-c3onc(-c4ccccc4)c3C(F)(F)F)n2)cc1` (racemic) [Example 90, (R/S)-N-((1H-Benzo[d]imidazol-2-yl)methyl)-2-hydroxy-2-(4-(5-(3-phenyl-4-(trifluoromethyl)isoxazol-5-yl)-1,2,4-oxadiazol-3-yl)phenyl)acetamide], at S1P1 [2], the concentration for half-maximal inhibition (IC50) was 13 nM. In addition, the concentration for a half-maximal effect (EC50) on S1P1 [1] was 31.5 nM; on S1P3, 5380 nM. In addition, the “GTPγS S1P3/S1P1” value at S1P1 [1] is 171.

Regarding `CNC(=O)[C@H](CCc1ccccc1)NC(=O)C(O)c1ccc(-c2noc(-c3onc(-c4ccccc4)c3C(F)(F)F)n2)cc1` (mixture of isomers) [Example 26, (R/S)-(2S)-2-(2-Hydroxy-2-(4-(5-(3-phenyl-4-(trifluoromethyl)isoxazol-5-yl)-1,2,4-oxadiazol-3-yl)phenyl)acetamido)-N-methyl-4-phenylbutanamide], the IC50 at S1P1 [2] turned out to be 910 nM. Moreover, on S1P1 [1], the EC50 worked out at 4280 nM and the “GTPγS S1P3/S1P1” value worked out at 1.4. The EC50 at S1P3 is 6200 nM.

With `O=C(O)CCNC(=O)C(O)c1ccc(-c2noc(-c3onc(-c4ccccc4)c3C(F)(F)F)n2)cc1` (racemic) [Example 22, (R/S)-3-(2-Hydroxy-2-(4-(5-(3-phenyl-4-(trifluoromethyl)isoxazol-5-yl)-1,2,4-oxadiazol-3-yl)phenyl)acetamido)propanoic acid], the concentration for half-maximal inhibition (IC50) at S1P1 [2] is 29 nM. The figures for the 50% effective concentration (EC50) at S1P1 [1] and on S1P3 were 103 nM and greater than 62500 nM, respectively. Further, on S1P1 [1], the “GTPγS S1P3/S1P1” value is > 604*.

At S1P1 [2], `CCNC(=O)C(O)c1ccc(-c2noc(-c3cnn(-c4ccccc4)c3C(F)(F)F)n2)cc1` (racemic) [Example 61, (R/S)-N-Ethyl-2-hydroxy-2-(4-(5-(1-phenyl-5-(trifluoromethyl)-1H-pyrazol-4-yl)-1,2,4-oxadiazol-3-yl)phenyl)acetamide] gave an IC50 of 8.5 nM. Moreover, at S1P1 [1], the EC50 turned out to be 34.2 nM and the “GTPγS S1P3/S1P1” value is > 1827*. The EC50 on S1P3 was greater than 62500 nM.

On S1P1 [2], `O=C(NCc1cnco1)C(O)c1ccc(-c2noc(-c3onc(-c4ccccc4)c3C(F)(F)F)n2)cc1` (racemic) [Example 126, (R/S)-2-hydroxy-N-(oxazol-5-ylmethyl)-2-(4-(5-(3-phenyl-4-(trifluoromethyl)isoxazol-5-yl)-1,2,4-oxadiazol-3-yl)phenyl)acetamide] returned a half-maximal inhibitory concentration (IC50) of 2.1 nM. The EC50 at S1P1 [1] is 13.6 nM; on S1P3, 20200 nM. Moreover, the “GTPγS S1P3/S1P1” value at S1P1 [1] turned out to be 1484.

`O=C(NC[C@@H]1CCCC[C@H]1O)C(O)c1ccc(-c2noc(-c3cnn(-c4ccccc4)c3C(F)(F)F)n2)cc1` (mixture of isomers) [Example 152, (R/S)-2-hydroxy-N-(((1S,2R)-2-hydroxycyclohexyl)methyl)-2-(4-(5-(1-phenyl-5-(trifluoromethyl)-1H-pyrazol-4-yl)-1,2,4-oxadiazol-3-yl)phenyl)acetamide] returned an IC50 on S1P1 [2] of 260 nM. For the same molecule, at S1P1 [1], a half-maximal response (EC50) required 517 nM and the “GTPγS S1P3/S1P1” value was 22. On S1P3, this molecule gave a half-maximal effective concentration (EC50) of 11200 nM.

As for `O=C(NCc1ccccn1)C(O)c1ccc(-c2noc(-c3cnn(-c4ccccc4)c3C(F)(F)F)n2)cc1` (racemic) [Example 137, (R/S)-2-hydroxy-2-(4-(5-(1-phenyl-5-(trifluoromethyl)-1H-pyrazol-4-yl)-1,2,4-oxadiazol-3-yl)phenyl)-N-(pyridin-2-ylmethyl)acetamide], the IC50 at S1P1 [2] is 4.9 nM. For the same molecule, at S1P1 [1], the midpoint of the response, the EC50, lay at 41.4 nM and the “GTPγS S1P3/S1P1” value stood at 267. The same molecule had a half-maximal effective concentration (EC50) on S1P3 of 11000 nM.

For `O=C(NCC1CCCN1)C(O)c1ccc(-c2noc(-c3onc(-c4ccccc4)c3C(F)(F)F)n2)cc1` (racemic) [Example 88, (R/S)-2-Hydroxy-2-(4-(5-(3-phenyl-4-(trifluoromethyl)isoxazol-5-yl)-1,2,4-oxadiazol-3-yl)phenyl)-N-(pyrrolidin-2-ylmethyl)acetamide, TFA], the 50% inhibitory concentration (IC50) at S1P1 [2] is 29 nM. Moreover, the half-maximal effective concentration (EC50) came out at 102 nM on S1P1 [1] and 5940 nM at S1P3. Also, the “GTPγS S1P3/S1P1” value at S1P1 [1] came out at 58.

The molecule `CCNC(=O)C(O)c1ccc(-c2noc(-c3noc(-c4ccccc4)c3C(F)(F)F)n2)cc1` (racemic) [Example 67, (R/S)-N-Ethyl-2-hydroxy-2-(4-(5-(5-phenyl-4-(trifluoromethyl)isoxazol-3-yl)-1,2,4-oxadiazol-3-yl)phenyl)acetamide] had a 50% inhibitory concentration (IC50) at S1P1 [2] of 17 nM. On S1P1 [1], a half-maximal effect (EC50) was put at 17.4 nM and the “GTPγS S1P3/S1P1” value is given as 1006. Moreover, the EC50 at S1P3 is 17500 nM.

As for `O=C(NCCO)C(O)c1ccc(-c2noc(-c3noc(-c4ccccc4)c3C(F)(F)F)n2)cc1` (racemic) [Example 62, (R/S)-2-Hydroxy-N-(2-hydroxyethyl)-2-(4-(5-(5-phenyl-4-(trifluoromethyl)isoxazol-3-yl)-1,2,4-oxadiazol-3-yl)phenyl)acetamide], on S1P1 [2], the half-maximal inhibitory concentration (IC50) was found to be 3.2 nM. Also, at S1P1 [1], the concentration for a half-maximal effect (EC50) is 12.6 nM and the “GTPγS S1P3/S1P1” value is given as 731. Also, the concentration giving a half-maximal response (EC50) on S1P3 is 9210 nM.

For the molecule `O=C(NC1CNC1)C(O)c1ccc(-c2noc(-c3onc(-c4ccccc4)c3C(F)(F)F)n2)cc1` (single isomer, unassigned) [Example 30, N-(Azetidin-3-yl)-2-hydroxy-2-(4-(5-(3-phenyl-4-(trifluoromethyl)isoxazol-5-yl)-1,2,4-oxadiazol-3-yl)phenyl)acetamide-TFA], the IC50 on S1P1 [2] worked out at 4.5 nM. The concentration giving a half-maximal response (EC50) is 50.9 nM at S1P1 [1] and greater than 31200 nM at S1P3. Further, the “GTPγS S1P3/S1P1” value on S1P1 [1] is listed as > 614**.

Source of the values: patent US8835470B2, “Mandelamide heterocyclic compounds” (Bristol-Myers Squibb Company, priority 2010, dated 2014).
